Results taken from patent US9409884B2 (Rigel Pharmaceuticals, Inc., priority 2012, dated 2016).

Biological target: AMPK
Experiment: AMPK activation, enzyme-linked immunosorbent assay
Type: biochemical
Details: Table 12, compounds of Table 5
Method in brief: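 Read-out: ELISA, used to detect compound-driven activation of AMPK.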

Compound | EC50 [nM]
O=C(NC1CCN(Cc2ccccc2)CC1)c1ccc(OC2CCN(Cc3ccc(OC(F)(F)F)cc3)CC2)c(F)c1 [Compound 5-57, N-(1-benzylpiperidin-4-yl)-3-fluoro-4-(1-(4-(trifluoromethoxy)benzyl)piperidin-4-yloxy)benzamide] | < 1000
CN1CCC(NC(=O)c2ccc(OC3CCN(Cc4ccc(C(F)(F)F)cc4)CC3)c(Cl)c2)CC1 [Compound 5-58, 3-chloro-N-(1-methylpiperidin-4-yl)-4-(1-(4-(trifluoromethyl)benzyl)piperidin-4-yloxy)benzamide] | 1000 to 10000
O=C(NC1CCN(Cc2ccccc2)CC1)c1ccc(OC2CCN(Cc3cccc(C(F)(F)F)c3)CC2)c(F)c1 [Compound 5-59, N-(1-benzylpiperidin-4-yl)-3-fluoro-4-(1-(3-(trifluoromethyl)benzyl)piperidin-4-yloxy)benzamide] | < 1000
O=C(NC1CCN(Cc2ccccc2)CC1)c1ccc(OC2CCN(Cc3cccc(C(F)(F)F)c3)CC2)c(Cl)c1 [Compound 5-60, N-(1-benzylpiperidin-4-yl)-3-chloro-4-(1-(3-(trifluoromethyl)benzyl)piperidin-4-yloxy)benzamide] | < 1000
O=C(NC1CCN(Cc2ccccc2)CC1)c1ccc(OC2CCN(Cc3ccc(F)cc3)CC2)c(F)c1 [Compound 5-61, N-(1-benzylpiperidin-4-yl)-3-fluoro-4-(1-(4-fluorobenzyl)piperidin-4-yloxy)benzamide] | < 1000
O=C(NC1CCN(Cc2ccccc2)CC1)c1cc(Cl)c(OC2CCN(Cc3cccc(C(F)(F)F)c3)CC2)c(Cl)c1 [Compound 5-62, N-(1-benzylpiperidin-4-yl)-3,5-dichloro-4-(1-(3-(trifluoromethyl)benzyl)piperidin-4-yloxy)benzamide] | < 1000
O=C(NC1CCN(Cc2ccccc2)CC1)c1ccc(OC2CCN(Cc3ccc(OC(F)(F)F)cc3)CC2)cc1 [Compound 5-63, N-(1-benzylpiperidin-4-yl)-4-(1-(4-(trifluoromethoxy)benzyl)piperidin-4-yloxy)benzamide] | < 1000
O=C(NC1CCN(Cc2ccccc2)CC1)c1ccc(OC2CCN(Cc3ccc(Cl)cc3)CC2)c(F)c1 [Compound 5-64, N-(1-benzylpiperidin-4-yl)-4-(1-(4-chlorobenzyl)piperidin-4-yloxy)-3-fluorobenzamide] | < 1000
O=C(NC1CCN(Cc2ccccc2)CC1)c1ccc(OC2CCN(Cc3ccc(Cl)cc3)CC2)c(Cl)c1 [Compound 5-65, N-(1-benzylpiperidin-4-yl)-3-chloro-4-(1-(4-chlorobenzyl)piperidin-4-yloxy)benzamide] | < 1000
O=C(NC1CCN(Cc2ccc(F)cc2)CC1)c1ccc(OC2CCN(Cc3ccc(Cl)cc3)CC2)c(Cl)c1 [Compound 5-66, 3-chloro-4-(1-(4-chlorobenzyl)piperidin-4-yloxy)-N-(1-(4-fluorobenzyl)piperidin-4-yl)benzamide] | < 1000
N#Cc1ccc(CN2CCC(Oc3ccc(C(=O)NC4CCN(Cc5ccccc5)CC4)cc3Cl)CC2)cc1 [Compound 5-67, N-(1-benzylpiperidin-4-yl)-3-chloro-4-(1-(4-cyanobenzyl)piperidin-4-yloxy)benzamide] | < 1000
Cc1ccc(CN2CCC(Oc3ccc(C(=O)NC4CCN(Cc5ccc(F)cc5)CC4)cc3Cl)CC2)cc1 [Compound 5-68, 3-chloro-N-(1-(4-fluorobenzyl)piperidin-4-yl)-4-(1-(4-methylbenzyl)piperidin-4-yloxy)benzamide] | < 1000
O=C(NC1CCN(Cc2ccccc2)CC1)c1ccc(OC2CCN(Cc3ccc(F)c(F)c3)CC2)c(F)c1 [Compound 5-69, N-(1-benzylpiperidin-4-yl)-4-(1-(3,4-difluorobenzyl)piperidin-4-yloxy)-3-fluorobenzamide] | < 1000
N#Cc1ccc(CN2CCC(Oc3ccc(C(=O)NC4CCN(Cc5ccc(Cl)cc5)CC4)cc3F)CC2)cc1 [Compound 5-70, N-(1-(4-chlorobenzyl)piperidin-4-yl)-4-(1-(4-cyanobenzyl)piperidin-4-yloxy)-3-fluorobenzamide] | < 1000
O=C(NC1CCN(Cc2ccc(Cl)cc2)CC1)c1ccc(OC2CCN(Cc3ccc(F)c(F)c3)CC2)c(F)c1 [Compound 5-71, N-(1-(4-chlorobenzyl)piperidin-4-yl)-4-(1-(3,4-difluorobenzyl)piperidin-4-yloxy)-3-fluorobenzamide] | < 1000
O=C(NC1CCN(Cc2ccc(Cl)cc2)CC1)c1ccc(OC2CCN(Cc3ccc(Cl)cc3)CC2)c(F)c1 [Compound 5-72, N-(1-(4-chlorobenzyl)piperidin-4-yl)-4-(1-(4-chlorobenzyl)piperidin-4-yloxy)-3-fluorobenzamide] | < 1000
Cc1ccc(CN2CCC(Oc3ccc(C(=O)NC4CCN(Cc5ccc(Cl)cc5)CC4)cc3F)CC2)cc1 [Compound 5-73, N-(1-(4-chlorobenzyl)piperidin-4-yl)-3-fluoro-4-(1-(4-methylbenzyl)piperidin-4-yloxy)benzamide] | < 1000
O=C(NC1CCN(Cc2ccccc2)CC1)c1ccc(OC2CCN(Cc3ccc(F)c(F)c3)CC2)c(Cl)c1 [Compound 5-74, N-(1-benzylpiperidin-4-yl)-3-chloro-4-(1-(3,4-difluorobenzyl)piperidin-4-yloxy)benzamide] | < 1000
O=C(NC1CCN(Cc2ccccc2)CC1)c1cc(Cl)c(OC2CCN(Cc3ccc(Cl)cc3)CC2)c(Cl)c1 [Compound 5-75, N-(1-benzylpiperidin-4-yl)-3,5-dichloro-4-(1-(4-chlorobenzyl)piperidin-4-yloxy)benzamide] | < 1000
O=C(NC1CCN(Cc2ccccc2)CC1)c1cc(Cl)c(OC2CCN(Cc3ccc(F)c(F)c3)CC2)c(Cl)c1 [Compound 5-76, N-(1-benzylpiperidin-4-yl)-3,5-dichloro-4-(1-(3,4-difluorobenzyl)piperidin-4-yloxy)benzamide] | < 1000
N#Cc1ccc(CN2CCC(Oc3c(Cl)cc(C(=O)NC4CCN(Cc5ccccc5)CC4)cc3Cl)CC2)cc1 [Compound 5-77, N-(1-benzylpiperidin-4-yl)-3,5-dichloro-4-(1-(4-cyanobenzyl)piperidin-4-yloxy)benzamide] | < 1000
CC(C)(C)OC(=O)N1CCC(NC(=O)c2ccc(OC3CCN(Cc4ccc(C#N)cc4)CC3)cc2)CC1 [Compound 5-78, tert-butyl 4-(4-(1-(4-cyanobenzyl)piperidin-4-yloxy)benzamido)piperidine-1-carboxylate] | < 1000
N#Cc1ccc(CN2CCC(Oc3ccc(C(=O)NC4CCNCC4)cc3)CC2)cc1 [Compound 5-79, 4-(1-(4-cyanobenzyl)piperidin-4-yloxy)-N-(piperidin-4-yl)benzamide] | > 100000
O=C(NC1CCN(Cc2ccc(Cl)cc2)CC1)c1ccc(OC2CCN(Cc3ccc(Cl)c(Cl)c3)CC2)c(F)c1 [Compound 5-80, N-(1-(4-chlorobenzyl)piperidin-4-yl)-4-(1-(3,4-dichlorobenzyl)piperidin-4-yloxy)-3-fluorobenzamide] | < 1000
N#Cc1ccc(N2CCC(Oc3ccc(C(=O)NC4CCN(Cc5ccc(Cl)cc5)CC4)cc3F)CC2)cc1 [Compound 5-81, N-(1-(4-chlorobenzyl)piperidin-4-yl)-4-(1-(4-cyanophenyl)piperidin-4-yloxy)-3-fluorobenzamide] | < 1000
O=C(NC1CCN(Cc2ccccc2)CC1)c1ccc(OC2CCN(Cc3ccc(Cl)c(Cl)c3)CC2)c(F)c1 [Compound 5-82, N-(1-benzylpiperidin-4-yl)-4-(1-(3,4-dichlorobenzyl)piperidin-4-yloxy)-3-fluorobenzamide] | < 1000
